Target: EEF1AKMT4-ECE2 readthrough transcript protein (Homo sapiens, UniProt P0DPD8)
Assay: Enzymatic Assay
Text: Inhibitory assay against ECE-2.

Chain of EEF1AKMT4-ECE2 readthrough transcript protein (P0DPD8 whole entry): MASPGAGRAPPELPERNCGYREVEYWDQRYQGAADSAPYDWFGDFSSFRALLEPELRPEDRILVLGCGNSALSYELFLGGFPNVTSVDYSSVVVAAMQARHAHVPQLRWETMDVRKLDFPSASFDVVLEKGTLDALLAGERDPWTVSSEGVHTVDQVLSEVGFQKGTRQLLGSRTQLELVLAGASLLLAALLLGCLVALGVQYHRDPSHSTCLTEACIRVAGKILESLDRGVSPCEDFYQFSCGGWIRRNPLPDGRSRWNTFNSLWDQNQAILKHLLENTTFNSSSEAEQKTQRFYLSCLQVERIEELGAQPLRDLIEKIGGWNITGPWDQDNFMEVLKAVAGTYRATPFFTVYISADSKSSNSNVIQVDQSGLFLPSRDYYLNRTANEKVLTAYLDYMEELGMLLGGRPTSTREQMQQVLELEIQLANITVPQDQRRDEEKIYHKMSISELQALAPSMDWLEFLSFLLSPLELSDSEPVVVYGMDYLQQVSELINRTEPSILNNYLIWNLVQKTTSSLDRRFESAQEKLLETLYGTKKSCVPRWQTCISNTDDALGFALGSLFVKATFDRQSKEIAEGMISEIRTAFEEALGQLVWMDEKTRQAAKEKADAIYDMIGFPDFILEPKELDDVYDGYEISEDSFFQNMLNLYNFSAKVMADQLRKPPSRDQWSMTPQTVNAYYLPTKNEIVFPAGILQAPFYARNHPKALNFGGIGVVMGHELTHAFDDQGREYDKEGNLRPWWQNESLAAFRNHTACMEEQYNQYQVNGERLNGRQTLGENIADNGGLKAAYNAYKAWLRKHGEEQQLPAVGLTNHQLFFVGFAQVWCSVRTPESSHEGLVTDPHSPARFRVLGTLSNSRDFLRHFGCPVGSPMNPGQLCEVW

IC50 [nM] | Ki [nM] | SMILES
43.4 | 22.3 | O=C(N[C@@H](Cc1c[nH]c2ccccc12)C(=O)O)C(CS)C1CCc2cc(Br)ccc21 (stereo partly drawn) [(2S)-2-[2-(5-bromo-2,3-dihydro-1H-inden-1-yl)-3-sulfanylpropanamido]-3-(1H-indol-3-yl)propanoic acid, 1]
15.1 | 7.7 | O=C(O)[C@H](Cc1c[nH]c2ccccc12)NC(=O)[C@H](CS)C1CCc2ccccc21 (stereo partly drawn) [(2S)-2-[(2R)-2-(2,3-dihydro-1H-inden-1-yl)-3-sulfanylpropanamido]-3-(1H-indol-3-yl)propanoic acid, 2]
380 | 195 | C[C@H](NC(=O)[C@@H](CC(=O)NO)Cc1ccccc1)C(=O)O [Kelatorphan]
> 10000 | > 10000 | O=C(O)CC(=O)N[C@@H](CS)Cc1ccccc1 [Retrothiorphan]

SMILES | IC50 [nM] | Ki [nM]
O=C(O)CNC(=O)[C@@H](CS)Cc1ccccc1 [2-(2-benzyl-3-sulfanylpropanamido)acetic acid] | > 100000 | > 100000
C[C@H](CS)C(=O)N1CCC[C@H]1C(=O)O [(2S)-1-[(2S)-2-methyl-3-sulfanylpropanoyl]pyrrolidine-2-carboxylic acid] | > 100000 | > 100000
CC(C)C[C@H](NP(=O)(O)O[C@@H]1O[C@@H](C)[C@H](O)[C@@H](O)[C@H]1O)C(=O)N[C@@H](Cc1c[nH]c2ccccc12)C(=O)O [(S)-2-{(R)-2-[Hydroxy-((2R,3R,4R,5R,6S)-3,4,5-trihydroxy-6-methyl-tetrahydro-pyran-2-yloxy)-phosphorylamino]-4-methyl-pentanoylamino}-3-(1H-indol-3-yl)-propionic acid] | 2.33 | 1.2

Reference: BindingDB's records for doi:10.1074/jbc.M110.120576 (Pharmaleads, 2010)
